The text below walks through data of US20050209278A1, “Piperidinyl- and piperazinyl-sulfonylmethyl hydroxamic acids and their use as protease inhibitors” (priority 2002, published 2005).

Each structure is given as a SMILES string. Several values for one entry are separate records, joined by “and”; a condition that tells them apart may be missing. Equal values may be shown once.

In one assay the target is T1, MMP-1 (Homo sapiens, UniProt P03956).
T1 construct: made in house; host or cells: MMP-1-transfected HT-1080 cells (spent media)
T1 sequence (P03956 100-469): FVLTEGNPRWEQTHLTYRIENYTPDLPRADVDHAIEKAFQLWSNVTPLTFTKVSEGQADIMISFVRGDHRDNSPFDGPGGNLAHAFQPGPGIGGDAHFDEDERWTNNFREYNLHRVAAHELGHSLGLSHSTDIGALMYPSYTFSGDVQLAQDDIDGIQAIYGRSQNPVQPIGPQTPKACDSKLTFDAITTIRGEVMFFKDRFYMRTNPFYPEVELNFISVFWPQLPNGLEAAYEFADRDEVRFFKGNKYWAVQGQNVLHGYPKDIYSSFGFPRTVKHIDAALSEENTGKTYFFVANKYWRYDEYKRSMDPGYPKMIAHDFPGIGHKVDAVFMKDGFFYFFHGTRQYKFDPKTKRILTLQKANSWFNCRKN
Briefly: In vitro MMP inhibition, Ki determination (fluorogenic substrate II). Format: biochemical. The conditions noted are these: value outside parentheses; read-out: MMP-1 Ki.

For the next assay, the target named is T2, MMP-13 (Homo sapiens, UniProt P45452).
T2 construct: made in house; host or cells: baculovirus / insect cells
The assay is described as above. The following applies: value outside parentheses; read-out: MMP-13 Ki. Format: biochemical. The method, boiled down: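 Ki determined with human recombinant MMP-13, baculovirus-expressed as proenzyme and activated with APMA. Fluorogenic MCA/Dpa substrate II at 4 μM (at or below Km) with low enzyme in Tris buffer pH 7.5 with CaCl2. Incubation was 1 h at room temperature, with fluorescence read at 330/420 nm.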

Usually Ki stands for the dissociation constant of the complex between target and ligand, obtained from inhibition or displacement. For the molecule `CCc1ccc(C2CCN(S(=O)(=O)C3(C(=O)NO)CCN(CCOC)CC3)CC2)s1` [Example 314], the values for the Ki at MMP-1 and on MMP-13 were more than 10000 nM and 19.6 nM, respectively.

With `O=C(NO)C1(S(=O)(=O)N2CCC(N3CCN(c4ccc(Cl)cc4)CC3)CC2)CCOCC1` [Example 315], the values for the Ki at MMP-1 and on MMP-13 were more than 10000 nM and 420 nM, respectively.

Turning to `O=C(NO)C1(S(=O)(=O)N2CCN(c3ccc(-c4ccc(F)cc4F)cn3)CC2)CCOCC1` [Example 316], the Ki at MMP-1 came to 5520 nM; on MMP-13 it was 0.77 nM.

With `O=C(NO)C1(S(=O)(=O)N2CCN(c3ccc(-c4ccccc4F)cn3)CC2)CCOCC1` [Example 317], the Ki on MMP-1 stood at 2410 nM; at MMP-13, 0.71 nM.

In the case of `COc1ccccc1-c1ccc(N2CCN(S(=O)(=O)C3(C(=O)NO)CCOCC3)CC2)nc1` [Example 318], the Ki on MMP-1 was more than 10000 nM; at MMP-13, 62.3 nM.

Turning to `O=C(NO)C1(S(=O)(=O)N2CCN(c3ccc(-c4cccc(OC(F)(F)F)c4)cn3)CC2)CCOCC1` [Example 319], the Ki on MMP-1 was more than 10000 nM; on MMP-13 it was 4.62 nM.

Turning to `O=C(NO)C1(S(=O)(=O)N2CCN(c3ccc(CCCC(F)(F)F)cc3)CC2)CCOCC1` [Example 320], the Ki is more than 10000 nM on MMP-1 and 0.501 nM on MMP-13.

Regarding `O=C(NO)C1(S(=O)(=O)N2CCN(c3cnn(CCCC(F)(F)F)c(=O)c3)CC2)CCOCC1` [Example 321], the Ki on MMP-1 and on MMP-13 was more than 10000 nM each time.

On to `O=C(NO)C1(S(=O)(=O)N2CCN(c3cnn(-c4ccccc4)c(=O)c3)CC2)CCOCC1` [Example 322], for which the Ki at MMP-1 and on MMP-13 was more than 10000 nM each time.

Regarding `CCCCc1ccc(C2CCN(S(=O)(=O)C3(C(=O)NO)CCOCC3)CC2)nc1` [Example 323], the Ki on MMP-1 was 6210 nM; on MMP-13, 0.65 nM.

For the molecule `COC(=O)c1ccc(N2CCN(S(=O)(=O)C3(C(=O)NO)CCOCC3)CC2)cc1` [Example 324], the Ki was 1860 nM on MMP-1 and 3.55 nM on MMP-13.

As for `CCCCOc1ccc(N2CCN(S(=O)(=O)C3(C(=O)NO)CCN(CCOC)CC3)CC2)nc1` [Example 325], the figures for the Ki on MMP-1 and on MMP-13 were 7510 nM and 0.09 nM, respectively.

Consider `O=C(NO)C1(S(=O)(=O)N2CCN(c3ccc(OCC(F)(F)C(F)F)cc3)CC2)CCOCC1` [Example 326], for which the Ki came to 6580 nM at MMP-1 and 0.31 nM at MMP-13.

`O=C(NO)C1(S(=O)(=O)N2CCN(c3ccc(-c4ccc(OC(F)(F)F)cc4)cc3)CC2)CCOCC1` [Example 327]: the Ki at MMP-1 was 7300 nM; on MMP-13 it was 0.499 nM.

In the case of `O=C(NO)C1(S(=O)(=O)N2CCN(c3ccc(-c4ccc(Cl)c(Cl)c4)cc3)CC2)CCOCC1` [Example 328], the Ki was found to be 3720 nM at MMP-1 and 0.71 nM on MMP-13.

Consider `O=C(NO)C1(S(=O)(=O)N2CCN(c3cnn(-c4ccccc4)c(=O)c3Cl)CC2)CCOCC1` [Example 329], for which the Ki at MMP-1 and at MMP-13 was more than 10000 nM in each case.

`O=C(NO)C1(S(=O)(=O)N2CCC(c3ccc(OCC(F)(F)C(F)(F)F)cc3)CC2)CCOCC1` [Example 330]: the figures for the Ki on MMP-1 and at MMP-13 were 5360 nM and 0.92 nM, respectively.

`O=C(NO)C1(S(=O)(=O)N2CCN(c3ccc(Br)cn3)CC2)CCOCC1` [Example 331]: the results for the Ki at MMP-1 and at MMP-13 were 279 nM and 0.193 nM, respectively.

Take `COCCN1CCC(C(=O)NO)(S(=O)(=O)N2CCN(c3ncccn3)CC2)CC1` [Example 332]: the figures for the Ki on MMP-1 and on MMP-13 were 5110 nM and 28.2 nM, respectively.

For `O=C(NO)C1(S(=O)(=O)N2CCN(c3ccc(OCC4CC4)c(F)c3)CC2)CCOCC1` [Example 333], the Ki was more than 10000 nM at MMP-1 and 1.12 nM at MMP-13.

For `CCCCc1cnc(N2CCN(S(=O)(=O)C3(C(=O)NO)CCN(CCOC)CC3)CC2)nc1` [Example 334], the figures for the Ki on MMP-1 and at MMP-13 were more than 10000 nM and 2.75 nM, respectively.

Turning to `O=C(NO)C1(S(=O)(=O)N2CCN(c3ccc(CCC(F)(F)C(F)(F)F)cc3)CC2)CCN(C2CC2)CC1` [Example 335], the figures for the Ki on MMP-1 and at MMP-13 were more than 10000 nM and 0.489 nM, respectively.

For the molecule `O=C(NO)C1(S(=O)(=O)N2CCN(c3ccc(OCC(F)(F)C(F)F)cc3)CC2)CCOCC1` [Example 336], the Ki turned out to be 2640 nM on MMP-1 and 0.522 nM on MMP-13.

As to `O=C(NO)C1(S(=O)(=O)N2CCC(c3ccc(OC(F)(F)C(F)F)cc3)CC2)CCOCC1` [Example 337], the Ki at MMP-1 was 3290 nM; on MMP-13, 0.708 nM.

In the case of `O=C(NO)C1(S(=O)(=O)N2CCC(c3ccc(CCCC(F)(F)F)cn3)CC2)CCOCC1` [Example 338], the results for the Ki at MMP-1 and at MMP-13 were 9860 nM and 0.302 nM, respectively.

With `O=C(NO)C1(S(=O)(=O)N2CCC(c3ccc(CCC(F)(F)C(F)(F)F)cn3)CC2)CCOCC1` [Example 340], the Ki on MMP-1 amounted to 5860 nM; at MMP-13, 0.107 nM.

Consider `CCN1CCC(C(=O)NO)(S(=O)(=O)N2CCN(c3ccc(-c4ccccc4)c(F)c3)CC2)CC1` [Example 341], for which the Ki on MMP-1 is more than 10000 nM; on MMP-13 it was 2.59 nM.

As to `O=C(NO)C1(S(=O)(=O)N2CCN(c3ccc(OCCCC(F)(F)F)cc3)CC2)CC(O)C1` (stereo not shown) [Example 342], the Ki is more than 10000 nM at MMP-1 and 3.89 nM on MMP-13.

Take `O=C(NO)C1(S(=O)(=O)N2CCN(c3ncc(-c4ccc(Cl)cc4)s3)CC2)CCOCC1` [Example 343]: the values for the inhibition constant (Ki) on MMP-1 and at MMP-13 were 5250 nM and 0.167 nM, respectively.

Turning to `Cc1ccc(-c2cnc(N3CCN(S(=O)(=O)C4(C(=O)NO)CCOCC4)CC3)s2)cc1` [Example 344], the results for the Ki on MMP-1 and on MMP-13 were 3520 nM and 0.267 nM, respectively.

For the molecule `O=C(NO)C1(S(=O)(=O)N2CCN(c3ncc(-c4ccc(F)cc4)s3)CC2)CCOCC1` [Example 345], the inhibition constant Ki at MMP-1 came out at 5540 nM; at MMP-13, 0.236 nM.

For `O=C(NO)C1(S(=O)(=O)N2CCN(c3ncc(-c4ccc(C(F)(F)F)cc4)s3)CC2)CCOCC1` [Example 346], the Ki was found to be 5690 nM at MMP-1 and 0.167 nM on MMP-13.

Regarding `CC(C)(C)c1ccc(-c2cnc(N3CCN(S(=O)(=O)C4(C(=O)NO)CCOCC4)CC3)s2)cc1` [Example 347], the figures for the Ki at MMP-1 and at MMP-13 were 2770 nM and 1.48 nM, respectively.

On to `Cc1ccccc1-c1cnc(N2CCN(S(=O)(=O)C3(C(=O)NO)CCOCC3)CC2)s1` [Example 348], for which the Ki on MMP-1 was more than 10000 nM; at MMP-13, 2.99 nM.

Take `O=C(NO)C1(S(=O)(=O)N2CCC(c3ccc(OC(F)(F)C(F)(F)F)cc3)CC2)CCOCC1` [Example 349]: the Ki at MMP-1 was more than 10000 nM; at MMP-13 it was 5.08 nM.

On to `O=C(NO)C1(S(=O)(=O)N2CCC(c3ccc(OCC(F)(F)C(F)F)cc3)CC2)CCN(C2CC2)CC1` [Example 350], for which the Ki at MMP-1 is more than 10000 nM; on MMP-13 it was 0.523 nM.

On to `O=C(NO)C1(S(=O)(=O)N2CCC(c3ccc(CCCC(F)(F)F)cc3)CC2)CCN(C2CC2)CC1` [Example 351], for which the Ki is more than 10000 nM at MMP-1 and 0.359 nM on MMP-13.

Take `O=C(O)c1ccc(N2CCN(S(=O)(=O)C3(C(=O)NO)CCOCC3)CC2)cc1` [Example 352]: the results for the Ki at MMP-1 and at MMP-13 were more than 10000 nM and 3640 nM, respectively.

Regarding `O=C(NO)C1(S(=O)(=O)N2CCC(c3ccc(CCCC(F)(F)F)cc3)CC2)CCOCC1` [Example 353], the Ki worked out at 8580 nM on MMP-1 and 0.378 nM at MMP-13.

Regarding `CCCCOc1cccc(N2CCN(S(=O)(=O)C3(C(=O)NO)CCOCC3)CC2)c1` [Example 354], the Ki on MMP-1 was more than 10000 nM; at MMP-13, 165 nM.

`O=C(NO)C1(S(=O)(=O)N2CCN(c3cccc(OCCCC(F)(F)F)c3)CC2)CCOCC1` [Example 355]: the Ki on MMP-1 is more than 10000 nM; on MMP-13 it was 51.1 nM.

Turning to `CCCCCc1cccc(N2CCN(S(=O)(=O)C3(C(=O)NO)CCOCC3)CC2)c1` [Example 356], the Ki on MMP-1 was more than 10000 nM; at MMP-13, 35.3 nM.

With `O=C(NO)C1(S(=O)(=O)N2CCC(c3ccc(OCC(F)(F)F)cc3)CC2)CCOCC1` [Example 357], the values for the Ki at MMP-1 and on MMP-13 were 3780 nM and 1.2 nM, respectively.

In the case of `O=C(NO)C1(S(=O)(=O)N2CCN(c3ccc(CCCC(F)(F)F)cn3)CC2)CCOCC1` [Example 358], the Ki at MMP-1 is more than 10000 nM; at MMP-13, 0.15 nM.

For the molecule `O=C(NO)C1(S(=O)(=O)N2CCN(c3ncc(-c4ccc(F)cc4F)s3)CC2)CCOCC1` [Example 359], the Ki worked out at 2600 nM at MMP-1 and 0.439 nM at MMP-13.

`O=C(NO)C1(S(=O)(=O)N2CCN(c3ncc(-c4ccc(-c5ccccc5)cc4)s3)CC2)CCOCC1` [Example 360]: the Ki at MMP-1 is more than 2500 nM; on MMP-13 it was 0.426 nM.

Turning to `O=C(NO)C1(S(=O)(=O)N2CCN(c3ncc(/C=C/c4ccccc4)s3)CC2)CCOCC1` [Example 361], the Ki is more than 2500 nM on MMP-1; 1.06 nM and 1.07 nM on MMP-13.

With `O=C(NO)C1(S(=O)(=O)N2CCN(c3ncc(-c4ccc5c(c4)OCO5)s3)CC2)CCOCC1` [Example 362], the values for the Ki on MMP-1 and on MMP-13 were 2120 nM and 0.408 nM, respectively.

Regarding `O=C(NO)C1(S(=O)(=O)N2CCN(c3ncc(-c4ccc([N+](=O)[O-])cc4)s3)CC2)CCOCC1` [Example 363], the figures for the Ki on MMP-1 and at MMP-13 were 2350 nM and 0.076 nM, respectively.

As for `O=C(NO)C1(S(=O)(=O)N2CCN(c3ncc(-c4ccc(OC(F)(F)F)cc4)s3)CC2)CCOCC1` [Example 364], the Ki on MMP-1 was found to be 3940 nM; on MMP-13, 0.106 nM.
